Test results as given in BigSolDB 2.1.

NC(CO)(CO)CO
solubility (mole fraction)
Conditions	293.2 K	298.2 K	303.2 K	308.2 K	313.2 K
in n-propanol	0.0038	0.005	0.0063	0.0072	0.0088
in water	0.0831	0.092	0.101	0.11	0.123
